Converted amounts (≈) assume the structure as drawn.
Key:
[1] = system: Trypanosoma brucei brucei; test: Antitrypanosomal activity against Trypanosoma brucei brucei 427-221a after 40 hrs by bioluminescence assay; format: functional, organism-based; conditions: Trypanosoma brucei, 427-221a, 40 h
Rhodesain = Rhodesain (Trypanosoma brucei rhodesiense, UniProt Q95PM0); test: Inhibition of […] after 5 mins by spectrofluorimetry
[2] = Inhibition of Trypanosoma brucei brucei recombinant cathepsin B assessed after 5 mins by spectrofluorimetry
Jurkat [3] = test: Cytotoxicity against human Jurkat cells after 40 hrs bioluminescence assay; format: cell-based
[4] = Selectivity index, ratio of IC50 for human Jurkat cells to IC50 for Trypanosoma brucei brucei; format: toxicity, cell-based; conditions: for Ratio IC50: jurkat
[5] = Ciliostatic activity against human respiratory epithelium assessed as required active concentration; format: functional
Homo sapiens = species on record: Homo sapiens; test: Induction of apoptosis in human HSC assessed as required active concentration; format: functional
[6] = Inhibition of NADPH oxidase
HeLa = test: Cytotoxicity against human HeLa cells; format: functional, cell-based
HUVEC = test: Cytotoxicity against HUVEC; format: cell-based; conditions: Homo sapiens
A549 = test: Cytotoxicity against human A549 cells; format: functional, cell-based
[7] = Cytotoxicity against rainbow trout RTS11 cells; format: cell-based; conditions: Oncorhynchus mykiss
[8] = Cytotoxicity against rainbow trout RTG2 cells; format: cell-based; conditions: Oncorhynchus mykiss
[9] = Cytotoxicity against chinook salmon CHSE-214 cells; format: cell-based; conditions: Oncorhynchus tshawytscha
Tetrahymena pyriformis = test: Antiprotozoal activity against Tetrahymena pyriformis; format: functional, organism-based
[10] = Inhibition of PAF
[11] = molecular target: Mycothiol S-conjugate amidase (Mycobacterium tuberculosis, UniProt P9WJN1); test: Inhibition of Mycobacterium tuberculosis mycothiol-S-conjugate amidase
Mycothiol S-conjugate amidase, sequence (P9WJN1 whole entry): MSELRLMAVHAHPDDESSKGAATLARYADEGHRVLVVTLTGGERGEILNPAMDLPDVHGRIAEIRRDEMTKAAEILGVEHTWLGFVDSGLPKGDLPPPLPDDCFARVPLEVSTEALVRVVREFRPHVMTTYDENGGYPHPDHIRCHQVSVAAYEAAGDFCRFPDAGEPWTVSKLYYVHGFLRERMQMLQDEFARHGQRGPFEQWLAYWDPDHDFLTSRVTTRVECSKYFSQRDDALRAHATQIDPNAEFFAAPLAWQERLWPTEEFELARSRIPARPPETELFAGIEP

jurkat [12] = test: Activation of NF-kappaB in human jurkat cells assessed as active concentration required; format: cell-based
[13] = molecular target: Acetolactate synthase catalytic subunit, mitochondrial (Saccharomyces cerevisiae S288c, UniProt P07342); test: Inhibition of Saccharomyces cerevisiae acetolactate synthase
Acetolactate synthase catalytic subunit, mitochondrial, sequence (P07342 whole entry): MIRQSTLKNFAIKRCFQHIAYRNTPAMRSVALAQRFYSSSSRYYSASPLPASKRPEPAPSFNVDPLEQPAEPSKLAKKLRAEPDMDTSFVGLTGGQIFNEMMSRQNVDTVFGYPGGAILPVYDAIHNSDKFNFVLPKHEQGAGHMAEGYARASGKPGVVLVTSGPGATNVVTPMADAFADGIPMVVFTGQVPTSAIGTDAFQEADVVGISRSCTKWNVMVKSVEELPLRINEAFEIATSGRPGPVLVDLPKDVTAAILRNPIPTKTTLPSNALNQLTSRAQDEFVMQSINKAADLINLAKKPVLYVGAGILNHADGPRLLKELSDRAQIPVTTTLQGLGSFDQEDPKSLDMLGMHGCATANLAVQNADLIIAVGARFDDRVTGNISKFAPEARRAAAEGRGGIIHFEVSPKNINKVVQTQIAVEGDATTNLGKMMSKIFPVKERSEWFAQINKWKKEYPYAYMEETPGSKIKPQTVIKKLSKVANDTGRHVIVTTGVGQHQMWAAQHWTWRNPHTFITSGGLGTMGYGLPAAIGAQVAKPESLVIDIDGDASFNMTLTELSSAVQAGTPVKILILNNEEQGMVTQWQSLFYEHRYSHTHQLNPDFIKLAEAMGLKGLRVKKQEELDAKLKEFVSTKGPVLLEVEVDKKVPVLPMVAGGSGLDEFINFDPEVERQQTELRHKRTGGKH

[14] = Inhibition of chymotrypsin-like activity of 20S proteasome activity
Macrophomina phaseolina [15] = test: Antimicrobial activity against Rhizoctonia bataticola; format: functional; conditions: read-out: ED50 (the source's name)
Macrophomina phaseolina [16] = test: Antimicrobial activity against Macrophomina phaseolina; format: functional; conditions: read-out: ED50 (the source's name)
[17] = system: Globisporangium debaryanum; test: Antimicrobial activity against Pythium debaryanum; format: functional; conditions: read-out: ED50 (the source's name)
Pythium aphanidermatum = test: Antimicrobial activity against Pythium aphanidermatum; format: functional; conditions: read-out: ED50 (the source's name)
Athelia rolfsii = test: Antimicrobial activity against Sclerotium rolfsii; format: functional; conditions: Agroathelia rolfsii; read-out: ED50 (the source's name)
Rhizoctonia solani = test: Antimicrobial activity against Rhizoctonia solani; format: functional; conditions: read-out: ED50 (the source's name)
Plasmodium falciparum = test: Antiparasitic activity against chloroquine-resistant Plasmodium falciparum K1; format: functional, organism-based
[18] = Toxicity in ip dosed ddY mouse; format: organism-based; conditions: in vivo
Macrophage = test: Immunomodulatory activity in macrophage assessed as inhibition of phagocytosis; format: functional; conditions: read-out: ED50 (the source's name)
[19] = Selectivity index, ratio of IC50 for rat L6 cells to IC50 for Trypanosoma brucei brucei
MDA-MB-468 = test: Cytotoxicity against human MDA-MB-468 cells; format: functional, cell-based
MCF7 = test: Cytotoxicity against human MCF7 cells; format: functional, cell-based
HEK293 = test: Cytotoxicity against HEK293 cells; format: cell-based; conditions: Homo sapiens
[20] = Selectivity index, ratio of EC50 for HEK293 cells to EC50 for Trypanosoma brucei brucei; format: toxicity, cell-based; conditions: human, read-out: Ratio EC50
[21] = Cell cycle arrest in temperature sensitive mouse FT210 cells assessed as accumulation at M phase; format: functional, cell-based
[22] = Induction of mutagenesis in Salmonella Typhimurium assessed as drug level required by Ames assay; format: toxicity; conditions: salmonella enterica subsp. enterica serovar typhimurium
[23] = Induction of mutagenesis in microsomes assessed as drug level required by Ames assay; design: species or system Microsome
Mus musculus = test: Neurotoxicity in ip dosed Swiss mouse assessed as drug level required for induction of tremor; format: toxicity, organism-based; conditions: in vivo
[24] = Toxicity in ip dosed mouse; format: organism-based; conditions: in vivo
[25] = system: Trypanosoma brucei brucei; test: Antitrypanosomal activity against Trypanosoma brucei brucei at 1.25 ug/ml after 40 hrs by bioluminescence assay relative to control; format: functional

Rhodesain, sequence (Q95PM0 whole entry): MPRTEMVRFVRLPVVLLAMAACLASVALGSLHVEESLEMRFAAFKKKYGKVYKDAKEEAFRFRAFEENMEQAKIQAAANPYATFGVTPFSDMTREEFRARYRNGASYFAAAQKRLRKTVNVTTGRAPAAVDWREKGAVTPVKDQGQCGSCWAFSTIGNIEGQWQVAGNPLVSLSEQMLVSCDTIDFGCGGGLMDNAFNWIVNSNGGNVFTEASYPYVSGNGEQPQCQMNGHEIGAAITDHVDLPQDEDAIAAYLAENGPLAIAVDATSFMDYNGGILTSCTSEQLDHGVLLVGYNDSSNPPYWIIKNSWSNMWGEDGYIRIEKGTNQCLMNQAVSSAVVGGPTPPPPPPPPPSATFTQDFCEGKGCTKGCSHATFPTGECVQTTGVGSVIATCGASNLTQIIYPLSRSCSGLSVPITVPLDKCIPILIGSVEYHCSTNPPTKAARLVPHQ

CS[C@]1(COC(C)=O)C(=O)N2[C@H]3C(=CC=C[C@@H]3OC(C)=O)C[C@@]2(SC)C(=O)N1C [DIACETYLBIS(METHYLTHIO)GLIOTOXIN]
IC50 [1]: 35.5 µM | IC50 (Rhodesain): > 50 µM | IC50 [2]: > 50 µM | IC50 (Jurkat [3]): 56 µM | Ratio IC50 [4]: 1.6 ratio

CN1C(=O)[C@]23CC4=CC=C[C@H](O)[C@H]4N2C(=O)[C@@]1(CO)SS3 [GLIOTOXIN]
Activity [5]: 30.7 µM | Activity (Homo sapiens): 0.3 µM | IC50 [6]: 9 µM | IC50 [1]: 0.01 µM | IC50 (Rhodesain): > 50 µM | IC50 [2]: 0.5 µM | IC50 (Jurkat [3]): < 1 µM | IC50 (HeLa): 2.45 µM | IC50 (HUVEC): 0.123 µM | IC50 (A549): 0.003 µM | EC50 [7]: 1.35 µM | EC50 [8]: 2 µM | EC50 [9]: 1.65 µM | EC50 (Tetrahymena pyriformis): 0.38 µM | IC50 [10]: 93 µM | IC50 [11]: 50 µM | Activity (jurkat [12]): 300 nM | IC50 [13]: 0.2 µM | IC50 [14]: 10 µM | EC50 (Macrophomina phaseolina [15]): 0.9 µM | EC50 (Macrophomina phaseolina [16]): 5.4 µM | EC50 [17]: 90.1 µM | EC50 (Pythium aphanidermatum): 36.9 µM | EC50 (Athelia rolfsii): 6.47 µM | EC50 (Rhizoctonia solani): 9.75 µM | IC50 (Plasmodium falciparum): 3.6 µM | LD50 [18]: 17.9 mg/kg | EC50 (Macrophage): 0.104 µM

Nc1nc(N)nc(Nc2ccc([As]3SCC(CO)S3)cc2)n1 (configuration not stated) [MELARSOPROL]
IC50 [1]: 0.004 µM | selectivity ratio [19]: 1940

COc1ccc2c(c1)N(C)C(=O)[C@@]21C=C2C(=O)N3CCC[C@H]3C(=O)N2[C@H]1C=C(C)C [N-METHYL-6-METHOXYSPIROTRYPROSTATIN B]
IC50 [1]: > 50 µM

COc1ccc2c(c1)N(C)C(=O)[C@@]21C[C@H]2C(=O)N3CCC[C@H]3C(=O)N2[C@H]1C=C(C)C [N-METHYLSPIROTRYPROSTATIN A]
IC50 [1]: > 50 µM

N=C(N)c1ccc(OCCCCCOc2ccc(C(=N)N)cc2)cc1 [PENTAMIDINE]
IC50 [1]: 0.007 µM

COc1ccc2c(c1)NC(=O)[C@@]21C[C@H]2C(=O)N3CCC[C@H]3C(=O)N2[C@H]1C=C(C)C [SPIROTRYPROSTATIN A]
IC50 [1]: > 50 µM | IC50 (MDA-MB-468): 110 µM | IC50 (MCF7): > 300 µM

COc1ccc2c(c1)NC(=O)[C@@]21C=C2C(=O)N3CCC[C@H]3C(=O)N2[C@H]1C=C(C)C [SPIROTRYPROSTATIN B]
IC50 [1]: 5.7 µM | IC50 (Rhodesain): > 50 µM | IC50 [2]: > 50 µM | IC50 (Jurkat [3]): 21.1 µM | Ratio IC50 [4]: 3.7 ratio

Cc1ccc(/C(=N\NC(N)=S)c2cc(C(F)(F)F)cc(C(F)(F)F)c2)cc1 [THIOSEMICARBAZONE STANDARD]
EC50 [1]: 1.3 µM | IC50 (Rhodesain): 0.044 µM | IC50 [2]: 15 µM | EC50 (HEK293): 25 µM | selectivity ratio [20]: 19

COc1ccc2c3c4n(c2c1)[C@H](C=C(C)C)OOC(C)(C)C[C@@H]4N1C(=O)[C@@H]2CCCN2C(=O)[C@]1(O)[C@H]3O [VERRUCULOGEN]
IC50 [1]: 12.9 µM | IC50 (Rhodesain): 45 µM | IC50 [2]: > 50 µM | IC50 (Jurkat [3]): 97 µM | selectivity ratio ([4]; Jurkat cells, read-out: Ratio IC50): 7.5 | MIC [21]: 12.2 µM (≈ 6.24 µg/mL) | Activity [22]: 1 µM | Activity [23]: 1 µM | Activity (Mus musculus): 0.78 mg/kg | LD50 [24]: 2.4 mg/kg

CN1C(=O)[C@]23SS[C@@]1(C)C(=O)N2[C@H]1Nc2ccccc2[C@@]1([C@@]12c4ccccc4N[C@@H]1N1C(=O)[C@]4(CO)SS[C@]1(C(=O)N4C)[C@H]2O)[C@@H]3O [VERTICILLIN B]
Activity [25]: 109% | IC50 [1]: 0.007 µM | IC50 (Rhodesain): > 50 µM | IC50 [2]: > 50 µM | IC50 (Jurkat [3]): < 0.6 µM | EC50 (HeLa; read-out: ED50 (the source's name)): 0.28 µM

— ChEMBL document CHEMBL1156161, “Assessing the trypanocidal potential of natural and semi-synthetic diketopiperazines from two deep water marine-derived fungi” (Bioorg Med Chem, 2010)
